Legend:
[1] = test system: THP-1; assay: Cytotoxicity against human THP-1 cells assessed as cell viability at 100 uM incubated for 48 hrs by CellTiter Glo luminescent cell viability assay relative to control; settings: THP-1, 48 h, read-out: Activity
[2] = target: Stimulator of interferon genes protein (Homo sapiens, UniProt Q86WV6)
Chain of Stimulator of interferon genes protein (Q86WV6 whole entry): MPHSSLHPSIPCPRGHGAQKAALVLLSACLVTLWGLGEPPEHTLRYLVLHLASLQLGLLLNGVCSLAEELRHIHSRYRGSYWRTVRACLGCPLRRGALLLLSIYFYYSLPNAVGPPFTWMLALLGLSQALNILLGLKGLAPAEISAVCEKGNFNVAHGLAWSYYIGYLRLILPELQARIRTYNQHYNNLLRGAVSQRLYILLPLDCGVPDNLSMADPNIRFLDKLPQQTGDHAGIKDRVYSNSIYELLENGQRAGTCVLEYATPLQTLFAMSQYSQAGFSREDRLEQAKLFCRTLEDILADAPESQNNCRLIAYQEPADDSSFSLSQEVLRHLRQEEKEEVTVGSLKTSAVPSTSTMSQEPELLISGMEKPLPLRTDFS

Row | Structure (SMILES) | viability at 100 µM [1] | IC50 [2]
1 | COc1ccc2[nH]c3c(C)c(C)ccc3c(=O)c2c1 | 98.8% | 13.7 µM
2 | COc1ccc2c(c1)c(=O)c1cc(OC)c(C)c(C)c1n2CC(=O)O | 83.3% | 11.1 µM
3 | COc1cc(CC(=O)O)c2[nH]c3c(C)c(C)c(OC)cc3c(=O)c2c1 | 86.7% | 11.4 µM
4 | COC(=O)Cn1c2ccc(C)cc2c(=O)c2cc(OC)c(C)c(C)c21 | 85.7% | 41.5 µM
5 | CCOC(=O)Cn1c2ccc(OC)cc2c(=O)c2ccc(C)c(C)c21 | 99.2% | > 100 µM
6 | COc1cc2c(=O)c3cc(F)cc(CC(=O)O)c3[nH]c2c(C)c1C | 106% | 
7 | COc1cc2c(=O)c3cccc(C(=O)O)c3[nH]c2c(C)c1C | 92.1% | 
8 | Cc1ccc2c(=O)c3cc(Cl)cc(CC(=O)O)c3[nH]c2c1C | 83.4% | > 100 µM
9 | COc1cc2c(=O)c3c(F)ccc(CC(=O)O)c3[nH]c2c(C)c1C | 87.8% | 
10 | COc1cc2c(=O)c3cc(C)ccc3n(CC(=O)O)c2c(C)c1C | 105% | 25.1 µM
11 | Cc1ccc2c(=O)c3c(F)ccc(CC(=O)O)c3[nH]c2c1C | 103% | > 100 µM
12 | COc1cc2c(=O)c3ccccc3n(CC(=O)O)c2c(C)c1C | 86.9% | 8.26 µM
13 | COc1ccc2c(c1)c(=O)c1ccc(C)c(C)c1n2CC(=O)O | 95.8% | > 100 µM
14 | CCOC(=O)Cn1c2ccc(OC)cc2c(=O)c2cc(OC)c(C)c(C)c21 | 102% | 26 µM
15 | COc1ccc2c(c1)c(=O)c1cc(OC)c(C)c(C)c1n2CC(=O)OCC(C)(C)C | 93.3% | 33.8 µM
16 | Cc1ccc2c(=O)c3cc(F)cc(CC(=O)O)c3[nH]c2c1C | 99% | > 100 µM
17 | Cc1ccc2c(=O)c3cccc(CC(=O)O)c3[nH]c2c1C | 93.4% | > 100 µM
18 | COc1cc2c(=O)c3cc(C)cc(C(=O)O)c3[nH]c2c(C)c1C | 98.4% | 5.95 µM
19 | COc1cc2c(=O)c3c(Cl)ccc(CC(=O)O)c3[nH]c2c(C)c1C | 95.4% | 
20 | CCOC(=O)Cn1c2ccccc2c(=O)c2cc(OC)c(C)c(C)c21 | 93.5% | 
21 | COc1cc(C(=O)O)c2[nH]c3c(C)c(C)ccc3c(=O)c2c1 | 91.3% | > 100 µM
22 | COc1cc2c(=O)c3cc(Cl)cc(CC(=O)O)c3[nH]c2c(C)c1C | 82% | 
23 | Cc1ccc2c(=O)c3c(Cl)ccc(CC(=O)O)c3[nH]c2c1C | 87.7% | > 100 µM
24 | COc1cc2c(=O)c3cccc(CC(=O)O)c3[nH]c2c(C)c1C | 91.4% | 28 µM
25 | COc1cc(C(=O)O)c2[nH]c3c(C)c(C)c(OC)cc3c(=O)c2c1 | 96.5% | 
